Measurements: patent publication US10633345B2, “Human plasma kallikrein inhibitors” (BioCryst Pharmaceuticals, Inc., priority 2014, dated 2020)

What was measured:
human plasma kallikrein = human plasma kallikrein (Homo sapiens (Human), UniProt P03952); assay: Plasma kallikrein activity assay (chromogenic substrate S2302); format: biochemical; conditions: 2 nM kallikrein, 80 μM S2302, 30° C., pH 7.8; Cheng-Prusoff; values given as bins
Description: Plasma Kallikrein Activity Assay.
The effect of compounds of the invention on human plasma kallikrein activity was determined using the chromogenic substrates (DiaPharma Group, Inc., West Chester, Ohio, USA). In these experiments, 2 nM kallikrein (Enzyme Research Laboratories, South Bend, Ind., USA) was incubated with 80 μM S2302 (H-D-Pro-Phe-Arg-p-nitroaniline) in the absence or presence of increasing concentrations of compounds of the invention in a final volume of 200 μL Tris-HCl buffer (200 mM NaCl; 2.5 mM CaCl2; 50 mM Tris-HCl, pH 7.8).
Data were analyzed using SigmaPlot software (Systat Software, Inc., San Jose, Calif., USA) (Four Parameter Logistic Curve).

[1] = tested on: patients with hereditary angioedema (HAE); conditions: cited from earlier work
[2] = tested on: mouse model of middle cerebral artery occlusion (MCAO); conditions: cited from earlier work

Sequence of human plasma kallikrein (P03952 whole entry, looked up): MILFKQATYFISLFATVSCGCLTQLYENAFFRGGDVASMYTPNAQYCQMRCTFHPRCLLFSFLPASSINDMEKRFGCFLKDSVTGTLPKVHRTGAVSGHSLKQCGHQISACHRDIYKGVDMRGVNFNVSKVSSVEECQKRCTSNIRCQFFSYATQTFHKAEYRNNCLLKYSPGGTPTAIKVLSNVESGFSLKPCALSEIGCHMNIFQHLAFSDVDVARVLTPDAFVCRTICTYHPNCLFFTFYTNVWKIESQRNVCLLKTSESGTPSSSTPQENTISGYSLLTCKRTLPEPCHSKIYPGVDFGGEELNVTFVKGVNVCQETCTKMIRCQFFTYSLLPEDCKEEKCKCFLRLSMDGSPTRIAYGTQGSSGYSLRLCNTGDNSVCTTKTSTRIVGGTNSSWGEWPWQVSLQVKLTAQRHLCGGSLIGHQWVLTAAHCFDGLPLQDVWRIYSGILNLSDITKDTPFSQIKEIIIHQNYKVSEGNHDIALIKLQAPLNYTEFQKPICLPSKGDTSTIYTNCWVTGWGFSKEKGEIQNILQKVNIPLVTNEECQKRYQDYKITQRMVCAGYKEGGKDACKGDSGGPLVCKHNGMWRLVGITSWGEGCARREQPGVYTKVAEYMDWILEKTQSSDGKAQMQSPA
Sequence of human plasma kallikrein (P03952 whole entry partner, looked up): as the sequence (P03952 whole entry, looked up) above

## N#Cc1cccc(C(N)(CCC2CC2)c2ccc(F)c(NC(=O)c3cc(C(F)(F)F)nn3-c3cccc(C(N)=O)c3)c2)c1 (single isomer, unassigned; (-)) [Compound 267c, (−)-N-(5-(1-amino-1-(3-cyanophenyl)-3-cyclopropylpropyl)-2-fluorophenyl)-1-(3-carbamoylphenyl)-3-(trifluoromethyl)-1H-pyrazole-5-carboxamide]
Human plasma kallikrein
  Ki: > 100 nM

## ecallantide [DX-88]
[1]
  edema in patients with hereditary angioedema (HAE): alleviates edema

B1: C1-inhibitor: "a physiological inhibitor (C1-inhibitor)" (protein, UniProt P05155 23-500, looked up)
Plasma protease C1 inhibitor: NPNATSSSSQDPESLQDRGEGKVATTVISKMLFVEPILEVSSLPTTNSTTNSATKITANTTDEPTTQPTTEPTTQPTIQPTQPTTQLPTDSPTQPTTGSFCPGPVTLCSDLESHSTEAVLGDALVDFSLKLYHAFSAMKKVETNMAFSPFSIASLLTQVLLGAGENTKTNLESILSYPKDFTCVHQALKGFTTKGVTSVSQIFHSPDLAIRDTFVNASRTLYSSSPRVLSNNSDANLELINTWVAKNTNNKISRLLDSLPSDTRLVLLNAIYLSAKWKTTFDPKKTRMEPFHFKNSVIKVPMMNSKKYPVAHFIDQTLKAKVGQLQLSHNLSLVILVPQNLKHRLEDMEQALSPSVFKAIMEKLEMSKFQPTLLTLPRIKVTTSQDMLSIMEKLEFFDFSYDLNLCGLTEDPDLQVSAMQHQTVLELTETGVEAAAASAISVARTLLVFEVQQPFLFVLWDQQHKFPVFMGRVYDPRA
[2]
  infarct size: reduced
